The source of these data is patent US12521389B2, “Therapeutic approach to lung disease” (The Regents of the University of California, priority 2019, dated 2026).

Assay type in all cases: in vivo
Assay [1] addresses T1, CGRP receptor (Mus musculus, UniProt Q9R1W5+Q9WTJ5).
T1 construct: from tissue; host or cells: Live mouse pups on a B6 background (Nkx2-1 R191L NEHI model and control genotypes); lung, intranasal dosing
Description: Oxygen saturation (SpO2) by pulse-ox after intranasal BIBN-4096 in NEHI mouse model. As to conditions: Nkx2-1^L/L mutants; intranasal 10 ul of 0.3 mg/ml at P10-P18; analyzed at P22; vs vehicle DMSO. As for the experimental part:
Pups were shaved and […] by isoflurane while pulse-ox (MouseOxPlus, Starr Life Sciences) was performing. The SpO2 reads were recorded after 5 minutes of stable measurement.
(§1) BIBN-4096 (Fisher Scientific #45-611-0) was dissolved in 100% DMSO (Sigma-Aldrich D2650) and further diluted to working solution with saline before use. 10 ul of 0.3 mg/ml BIBN-4096 was intranasally administrated to pups at P10, P12, P14, P16 and P18.

Assay [2] concerns the target T1, CGRP receptor. In words: Body size / weight gain after intranasal BIBN-4096 in NEHI mouse model. The following applies: analyzed at P22. As for the experimental part: as §1
In assay [3] the target is T1, CGRP receptor. In words: Lung wet-to-dry ratio (pulmonary edema) after intranasal BIBN-4096 in NEHI mouse model. As to conditions: Nkx2-1^L/L mutants; intranasal 10 ul of 0.3 mg/ml at P10, P12, P14, P16, P18; analyzed at P22; vs vehicle DMSO. As for the experimental part: Each lung was removed from sacrificed mouse right after euthanasia. Excessive blood was removed by kimwipe and wet weight mw was measured right after dissection. The lung was then placed on the foil at 70° C. for 24 hours. Dry weight […] was then measured by reweighing the dried lung. Wet-to-dry ratio was calculated as: W/D ratio=mw/md.
as §1

Entries after “also recorded” stand apart in the source; their conditions may differ.

T1 sequence (Q9R1W5 23-463): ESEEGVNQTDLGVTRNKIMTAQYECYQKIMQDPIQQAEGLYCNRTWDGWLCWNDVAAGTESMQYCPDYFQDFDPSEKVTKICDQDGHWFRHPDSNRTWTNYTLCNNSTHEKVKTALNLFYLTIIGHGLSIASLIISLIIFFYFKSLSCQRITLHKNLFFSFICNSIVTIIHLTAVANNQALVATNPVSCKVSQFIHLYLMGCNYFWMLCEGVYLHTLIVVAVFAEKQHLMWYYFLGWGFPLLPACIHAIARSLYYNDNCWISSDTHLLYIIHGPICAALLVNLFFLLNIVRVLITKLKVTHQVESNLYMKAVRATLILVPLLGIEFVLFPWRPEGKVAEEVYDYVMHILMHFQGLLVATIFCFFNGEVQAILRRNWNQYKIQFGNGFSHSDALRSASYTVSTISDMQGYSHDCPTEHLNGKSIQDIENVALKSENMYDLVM
T1 sequence (Q9WTJ5 27-148): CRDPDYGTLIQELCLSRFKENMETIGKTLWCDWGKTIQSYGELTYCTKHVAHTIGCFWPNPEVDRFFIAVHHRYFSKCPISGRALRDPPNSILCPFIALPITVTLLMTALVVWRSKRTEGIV

In the case of `NCCCC[C@H](NC(=O)[C@@H](Cc1cc(Br)c(O)c(Br)c1)NC(=O)N1CCC(N2Cc3ccccc3NC2=O)CC1)C(=O)N1CCN(c2ccncc2)CC1` [BIBN-4096, N-((1R)-2-(((1S)-5-amino-1-((4-(pyridin-4-yl)piperazin-1-yl)carbonyl)pentyl)amino)-1-(3,5-dibromo-4-hydroxybenzyl)-2-oxoethyl)-4-(2-oxo-1,4-dihydroquinazolin-3 (2H)-yl) piperidine-1-carboxamide], the “Oxygen saturation measured by pulse-ox (gas-exchange)” value in assay [1] is reported as “clear reversal; also recorded: improved gas-exchange efficiency”. In addition, the “Body size / weight gain” value in assay [2] (Nkx2-1^L/L mutants, intranasal 10 ul of 0.3 mg/ml at P10-P18, vs vehicle DMSO) is reported as “clear reversal; also recorded: improved size”. For the same compound, the “Effects of treatment in control genotype groups” value in assay [2] (control genotype groups, intranasal P10-P18, vs vehicle DMSO (FIG. 9B)) was “did not lead to detectable effects”. In assay [3], the “Lung wet-to-dry ratio (pulmonary edema)” value was “clear reversal; also recorded: attenuation of fluid in lung”.
